# According to patent US5500358A, “Antibody catalysis of cyclohexadienone rearrangments” (The Scripps Research Institute, priority 1994, dated 1996):
# Tested on: catalytic monoclonal antibody 62C7 (anti-13.3), secreted by hybridoma 62C7, ATCC HB11703
# Assay: Antibody-catalyzed dienone-phenol rearrangement of 7 to 8, product formation followed by reverse-phase HPLC
# Assay type: biochemical, Balb/c mice
# Protocol: The KLH conjugates of haptens 13.3, 13.4, and 13.5 were then employed to inoculate Balb/c mice and antibodies were generated by standard protocols. (G. Kohler et al. Nature (1975), vol. 265, page 495.) Monoclonal antibodies were purified from ascites fluid by anion exchange chromatography and assayed against substrate 7 for production of the phenol product 8. Fourteen anti-13.3, twenty two anti-13.4, and twenty one anti-13.5 antibodies were assayed for catalysis of the rearrangement reaction converting dienone substrate 7 to phenol product 8. […] Assay condition employed […] in 100 mM NaCl, 50 mM of either bistris(bis(hydroxyethyl)-tris(hydroxymethyl)aminomethane) or 1,3-bis[tris (hydroxymethyl)aminopropane at 37° C. Product formation was followed by reverse-phase HPLC (Vydac C-18 218TP54 column (0.45×22 cm) at a flow rate of 1.5 milliliters/minute using 28% CH3 CN and 72% H2 O+0.1% CF3 COOH. Retention time tR for substrate 7 was 5.02 minutes. Retention time tR for product 8 was 7.14 minutes. The pD (98%) D2 O) values were obtained by adding 0.4 to the pH-electrode reading. […] Antibody 62C7 (anti-13.3) was characterized in detail.
# FIG. 3 illustrates the pH-profile of the rearrangement reaction in the presence of catalytic antibody 62C7 (anti-13.3) and without. Background rates are determined in H2 O and in D2 O. The lines are caluclated from the following equations respectively:
# kcat =kcat °+kcatH -[H3 O^30 ]^0.92 ;
# kH2O =k°+kH +[H3 O^30 ]; kD2O
# Accordingly, FIG. 3 illustrates both the antibody 62C7 catalyzed and the background reactions proceed via a hydronium ion catalyzed pathway, viz. kcatH+ =0.176/Mole second, H+ =1.51×10^-3 /Mole second. […] This is consistent with pre-equilibrium protonation of substrate 7 to form a first intermediate 10. This reaction probably reflects the spontaneous rearrangement of substrate 7 to the conjugate base of a second intermediate 12. This rearrangement reaction probably also occurs when substrate 7 is complexed with anti-13.3, i.e., second intermediate 12 is formed within the antibody complex. Importantly, a small inverse secondary isotope effect is observed in all cases at position C(3) of the dienone, viz., kcatH /kCatD =0.88 at pH=5.75, kH /kD =0.88-0.94 from pH=2.95 to 9.54. […] Accordingly, the rate determining step is the […]. (V. Vitullo et al., J. Am. Chem. Soc. (1974), vol. 94, page 3844.) Although this carbon hydrogen bond is ultimately broken to yield the product phenol 8, it is not involved in the rate determining step as this would have given rise to a large, normal isotope effect at that position.
# [1] = pH 5.75, 37° C., 100 mM NaCl, 50 mM buffer
Compound,"kcat (pH 5.75, 37° C.) [s⁻¹]","kcat / kuncat (pH 5.75, 37° C.)",Km [1] [µM],"kcatH+ (hydronium ion catalyzed pathway of the antibody reaction) (from pH-profile, FIG. 3) [mol⁻¹ s⁻¹]","Km (in D2O, pD 7.07, 37° C.) [µM]","kcat (in D2O, pD 7.07, 37° C.) [s⁻¹]","kcat / kuncat (in D2O, pD 7.07, 37° C.)","Km (pH 7.07, 37° C., H2O) [µM]","kcat (pH 7.07, 37° C., H2O) [s⁻¹]","kcat / kuncat (pH 7.07, 37° C., H2O)","kcatH /kCatD (secondary isotope effect at position C(3) of the dienone) (pH=5.75, 7 versus 7-d2)"
[2H]C1=C(C)C(=O)C(C)=C([2H])C1(Cc1ccc(C(=O)NCCO)cc1)OC [Compound 7-d2],1.37e-06,80,770,,,,,,,,
COC1(Cc2ccc(C(=O)NCCO)cc2)C=C(C)C(=O)C(C)=C1 [Compound 7],1.22e-06,80,670,0.176,1300,1.25e-06,95,1200,1.25e-06,90,0.88
